Results: US5437980A, “Phenanthridium dye staining of nucleic acids in living cells” (Molecular Probes, Inc., priority 1993, dated 1995)
Entries after “also recorded” stand apart in the source; their conditions may differ.

Columns and labels:
living cells [1] = assay: Entry into / staining of living cells, general; assay type: cell-based; settings: general summary; for entry into / staining of live cells: several types of cells
DNA [2] = assay: Relative DNA binding affinity, YOYO-1 over 5-DAPP/LIVE
DNA [3] = assay: DNA affinity (Kp) from fluorescence enhancement versus DNA concentration, microtiter plate reader; assay type: binding; settings: comparison in words, Table 1
Protocol: ^1 Fluorescence spectra obtained using a standard ratio of 200 μM
bp of DNA (bases of RNA) to 1 μM dye (standard solution) in a working
buffer (10 mM phosphate, 10% (v/v) ethanol, 1 mM EDTA and 100 mM NaCl), p
7.4. Fluorescence was measured in a Corning 96 U well plate and Cytofluor
sensitivity 4) as a function of DNA concentration from 0-100 μM at a
constant dye concentration of 0.5 μM.
^2 Fluorescence spectra obtained using the same method as above excep
the fluorescence was measured in a Cytofluor ™ 2300 (excitation filter
E (485/620); excitation D (620/640), and a sensitivity 4) as a function o
DNA concentration from 0-30 μM at a constant dye concentration of 0.1
^3 DNA affinity (Kp) determined by linear fitting of plots of
reciprocal fluorescence enhancement versus reciprocal DNA concentration,
as measured on a microtiter plate fluorescence reader (CytoFluor ™,

[4] = tested on: 3T3 mouse fibroblast cells; assay: Staining of nuclei in adherent cultured mammalian cells (Example 9); assay type: cell-based; settings: 2 μM dye; for staining distribution, chloroquine-treated cells: group 1, 300 μM chloroquine; for staining distribution, control cells: group 2, no chloroquine; for color of nucleus and cytoplasm: one half hour, long-pass fluorescein filter (red with rhodamine excitation)
Protocol: 3T3 mouse fibroblast cells are grown on coverslips in calf serum-supplemented DMEM medium. The coverslips of cells are washed in HBSS+. 5-DAPP/LIVE dye solutions are prepared to a final concentration of 2 μM in DMEM without serum. One group of 3T3 cells is treated with 300 μM chloroquine (group 1). These cells and control cells (group 2) not treated with chloroquine are incubated at 37° C. for 30 min. The two groups of cells are transferred to DMEM plus 5-DAPP/LIVE. The cells are incubated in the dye-containing medium for 30 min at room temperature and are subsequently washed in HBSS+and viewed by epifluorescence microscopy using a long-pass fluorescein or a rhodamine filter set.

[5] = tested on: free-living ciliate and flagellate protozoans; assay: Staining of protozoa (Example 7); assay type: cell-based; settings: 1 μL of 10 mM dye in 1 mL culture, 10 min, ambient temperature
Protocol: 1 μL of 10 mM the 5-DAPP/LIVE dye stock is added to 1 mL of protozoan culture. The medium is incubated for 10 min at ambient temperature. 15 μL of this preparation is mounted with dye between a coverglass and the slide. Using this procedure, the nuclei of most cells of the free-living ciliate and flagellate protozoans are stained under these conditions.

[6] = tested on: peripheral blood lymphocytes; assay: Staining of peripheral blood lymphocytes, fluorometer (Example 11); assay type: cell-based, goat; settings: for distribution of dye into nucleus of lymphocytes: on the scale of seconds
Protocol: Peripheral blood lymphocytes (PBL) are isolated from fresh heparinized goat blood and resuspended in buffer consisting of 135 mM NaCl, 5 mM KCl, 20 mM HEPES, 1 mM CaCl2, 1 mM MgCl2, pH 7.4 (HBSS+). The cells are resuspended to 10^6 mL (as determined by direct microscopic count using a standard hemocytometer) in a final volume of 3 mL in the above buffer in a quartz cuvette. 5-DAPP/LIVE dye stocks are prepared to final concentrations of 2 mM in DMSO. 3 μL of the octidium dye stock solution is injected into the cuvette to a final concentration of 2 μM. In a fluorometer, the sample is excited at 520 nm and fluorescence emission is monitored at 600 nm over the time required for the fluorescence signal to become stable. Hexidium, butidium and ethidium bromide are injected into separate samples of PBL to determine the relative rates of uptake for these stains. The volume of dye solution added to the cuvette is corrected by a factor relating the absorbance of the dye to the absorbance of a 2 mM octidium solution.

Saccharomyces = assay: Staining of yeast (Example 5); assay type: cell-based; settings: 10 μM dye, 30 min, 37° C.
Protocol: Yeast cells are washed by centrifugation and then resuspended in a solution of 2% glucose and 10 mM Na-HEPES, pH 7.4 to a cell density of between 5×10^5 and 2×10^6 cells/mL optical density at 410 nm (previously calibrated with YPD agar plate colony counts). Sufficient 10 mM stock solution of the 5-DAPP/LIVE dye in DMSO is added to effect a final concentration of 10 μM of the dye in the medium. The suspension is incubated for 30 min at 37° C. then 15 μL are placed between a coverglass and the microscope slide. The cellular fluorescence is observed using fluorescein (long-pass emission) or rhodamine filter sets.

[7] = tested on: epidermal tissue of the bulb, Alium spp.; assay: Staining of plant cell tissue (Example 6); assay type: cell-based; settings: 10 μM dye, 30 min, room temperature
Protocol: A small section of tissue from the bulb is removed with a razor blade. 0.5 mL of a 10 μM solution of the 5-DAPP/LIVE dye in distilled water is dispensed into a small glass dish. The epidermal tissue is cut into sections and placed in the dye solution. The tissue is stained for 30 min at room temperature in the dark then the tissue preparation is mounted in the presence of the dye between a coverglass and the slide.

mushroom spores = assay: Staining of mushroom spores by fluorescence microscopy (Example 4); assay type: cell-based, agaric; settings: 10-20 μM dye, 30 min, room temperature
Protocol: Spores are rinsed from the gills on the underside of the cap of an agaric using a stream of distilled water. The spores are concentrated by centrifugation for 30 sec at 10,000 rpm in a microcentrifuge then a minimal volume of a 10-20 μM solution of the 5-DAPP/LIVE dye in distilled water is added. The suspension is incubated with the dye for 30 min at room temperature then a 15 μL aliquot of the suspension is mounted on between a coverglass and the slide for viewing in the presence of the dye. The cellular fluorescence is observed on a Zeiss Axioplan fluorescence microscope using fluorescein (long:pass emission) or rhodamine filter sets.

Bacillus cereus = assay: Relative rate and extent of dye uptake into living Bacillus cereus (Example 2, FIG. 1); assay type: cell-based; settings: 2 μM dye, 23° C., 488 nm excitation, 600 nm emission
Protocol: FIG. 1. Relative Uptake of Dyes into Living Cells. Uptake of ethidium, butidium, hexidium and octidium by Bacillus cereus as described in Example 2.
Bacillus cereus is grown in nutrient broth to log phase, washed by centrifugation, and resuspended in water to a density of 5×10^6 cfu/mL (as determined in Example 1). One centimeter pathlength acrylic cuvettes containing 3 mL of cell suspension are placed in a fluorescence spectrophotometer equipped with a temperature regulated cuvette holder and magnetic stirrer. The suspensions are brought to 23° C. prior to dye addition. To a cuvette of 3 mL bacteria suspension is added 3 μL of 2 mM dye stock solutions in DMSO to give a final dye concentration of 2 μM to produce the maximum attainable fluorescence/cell at the 600 nm emission wavelength (determined as in Example 1). The peak fluorescence excitation and emission wavelengths are determined by scanning the spectrum of the dye in suspensions of Bacillus cereus incubated for 30 min with the dye. Fluorescence intensity of the suspensions is measured using 488 nm excitation and 600 nm emission wavelengths. Sampling of fluorescence is carried out at 5 or 10 Hz until the fluorescence signal appears to stabilize.

nucleic acids = settings: reduced ethidium, Bucana et al. (1986); cited from earlier work
trypanosome = settings: Watkins, J. CHEM SOC. 3059 (1952); Watkins & Woolfe; cited from earlier work
gram-positive bacteria [8] = settings: mild conditions; application Ser. No. 08/047,683; cited from earlier work
living cells [9] = settings: intact cell membrane; background; cited from earlier work
gram-negative bacteria = settings: mild conditions; application Ser. No. 08/047,683; cited from earlier work
gram-positive bacteria [10] = assay: Staining of live gram-positive bacteria; assay type: cell-based; settings: general summary
tissue culture cells = assay: Entry into / staining pattern of tissue culture cells; assay type: cell-based
Text: In some tissue culture cells, the pattern of staining is different from that observed in plant cells or bacteria. In the former case, cells are usually loaded with a brief pulse of dye, followed by a chase of buffered saline solution. These cells show a pattern of staining first in numerous intracellular compartments; e.g. lysosomes. In addition to staining these organelles first, the dyes also undergo a spectral shift to shorter wavelengths when associated with this "early-labeled compartment." If the same cells are exposed to pulses of higher concentrations of the 5-DAPP/LIVE dyes, the staining appears in the mitochondria (tubular structures that are labeled with rhodamine 123) and then, finally, in the nucleus, where it stains the nucleoli very brightly. Nucleoli are the most prominently stained area of higher eukaryotic cells, while the nuclei and cytosol usually stain in a hazy or punctate pattern in these cells. […] In plant tissues distinct nuclei tend to label uniformly, but there is frequently significant binding of the dye to cell walls. The plant cells are usually dark except for cell walls and nuclei. The characteristic binding morphology obtained using the 5-DAPP/LIVE dyes thus makes them useful in certain circumstances for identifying the type of cell in a mixed population of cells.

| SMILES | membrane permeability (living cells [1]) | staining of nuclei of protozoans [5] | distribution of dye into nucleus of lymphocytes [6] | staining distribution and intensity (Saccharomyces) | cell wall / surface staining [7] | entry into / staining of live cells (living cells [1]) | rate of dye loading (Bacillus cereus) | other results |
| --- | --- | --- | --- | --- | --- | --- | --- | --- |
| C[n+]1c(C=C2C=CN(CCC[N+](C)(C)CCC[N+](C)(C)CCCN3C=CC(=Cc4oc5ccccc5[n+]4C)c4ccccc43)c3ccccc32)oc2ccccc21 [YOYO-1, reference compound] | virtual impermeability | – | – | – | – | – | – | DNA binding affinity of YOYO-1 over 5-DAPP/LIVE (DNA [2]): hundred |
| CCCC[n+]1c(-c2ccccc2)c2cc(N)ccc2c2ccc(N)cc21 [butidium] | limited permeability in most cells | octidium which is better than butidium and ethidium | virtually instantaneous | more punctate cytoplasmic inclusions stained | more hazy surface staining | enters live cells slowly and is usually not very bright | increases with carbon chain length | binding affinity versus longer chain versions (DNA [3]): higher binding affinity than the tested longer chain versions; staining distribution, chloroquine-treated cells [4]: stained throughout, but with a greater relative intensity of staining in the nucleus; staining distribution, control cells [4]: relatively equal staining in the nucleus and cytoplasm; color of nucleus and cytoplasm [4]: orange; fraction of spores brightly stained (mushroom spores): about 10%; staining of spores (in words) (mushroom spores): stains all spores |
| CCN1c2cc(N)ccc2-c2ccc(N)cc2C1c1ccccc1 (stereo not shown) [dihydrophenanthridine derivative] | – | – | – | – | – | – | – | nucleic acid binding (nucleic acids): does not bind to nucleic acids |
| CC[n+]1c(-c2ccccc2)c2cc(N)ccc2c2ccc(N)cc21 [ethidium bromide, reference compound] | – | – | – | – | – | – | – | increase in fluorescence over time ([6]; 2 μM dye, 520 nm excitation, 600 nm emission): essentially no increase in fluorescence signal over time |
| CC[n+]1c(-c2ccccc2)c2cc(N)ccc2c2ccc(N)cc21 [ethidium, reference compound] | – | octidium which is better than butidium and ethidium | not ethidium | stains all yeast slightly with a pale red nucleus and hazy red cytoplasm | more hazy surface staining | does not enter most live cells easily | increases with carbon chain length | trypanocidal effectiveness / therapeutic potential (trypanosome): superior to that of other 5-DAPP derivatives with longer alkyl chains; fraction of spores entered (mushroom spores): less than 10%; staining of live gram-positive bacteria (gram-positive bacteria [8]): does not effectively stain; suitability for staining of nucleic acids in living cells (living cells [9]): usually not suitable for staining of nucleic acids in living cells in which the cell membrane is intact; staining of live gram-negative bacteria (gram-negative bacteria): does not effectively stain |
| C[n+]1c(-c2ccccc2)c2cc(N)ccc2c2ccc(N)cc21 [methidium] | – | – | – | – | – | – | – | trypanocidal effectiveness / therapeutic potential (trypanosome): less effective than ethidium |
| CCCCCCCC[n+]1c(-c2ccccc2)c2cc(N)ccc2c2ccc(N)cc21 [octidium] | marked enhancement of membrane permeability in all systems | better than butidium and ethidium | virtually instantaneous | somewhat less bright than hexidium staining; also recorded: markedly less cytoplasmic staining than any of the other forms | more hazy surface staining occurs with ethidium and butidium than with hexidium or octidium | enters cell membranes quickly; also recorded: becomes bright with continued incubation | increases with carbon chain length | staining distribution, chloroquine-treated cells [4]: stained throughout, but with a greater relative intensity of staining in the nucleus; staining distribution, control cells [4]: relatively equal staining in the nucleus and cytoplasm; color of nucleus and cytoplasm [4]: orange; fraction of yeast with stained nuclei (Saccharomyces): less than 100%; nuclear staining / staining [7]: stains identically to hexidium; fraction of spores brightly stained (mushroom spores): about 10% |
| Nc1ccc2c(c1)c(-c1ccccc1)[n+](CCc1ccccc1)c1cc(N)ccc21 [phenethidium] | marked enhancement of membrane permeability in all systems | – | – | – | – | facilitates entry of the 5-DAPP dye into living cells, but at a rate that is typically slower than derivatives in which the substituent is a C4 to C8 alkyl group | – | entry into gram positive bacteria (gram-positive bacteria [10]): enters gram positive bacteria; time to enter tissue culture cells (tissue culture cells): ≥ 1 h |
